The target of this assay is T1, Orexin receptor type 2 (Homo sapiens, UniProt O43614).
T1 sequence (O43614 whole entry): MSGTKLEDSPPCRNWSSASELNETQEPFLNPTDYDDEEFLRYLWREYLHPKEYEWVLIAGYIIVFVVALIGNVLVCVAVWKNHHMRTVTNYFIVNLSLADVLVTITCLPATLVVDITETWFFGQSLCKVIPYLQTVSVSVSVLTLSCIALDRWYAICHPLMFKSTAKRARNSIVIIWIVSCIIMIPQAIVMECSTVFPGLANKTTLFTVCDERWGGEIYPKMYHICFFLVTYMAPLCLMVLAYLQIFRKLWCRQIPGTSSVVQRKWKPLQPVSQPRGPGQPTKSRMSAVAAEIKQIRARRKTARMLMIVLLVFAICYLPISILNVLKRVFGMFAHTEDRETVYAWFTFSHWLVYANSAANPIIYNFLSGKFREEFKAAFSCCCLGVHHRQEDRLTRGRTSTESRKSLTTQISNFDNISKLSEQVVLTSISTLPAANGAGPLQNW
The assay is described as follows: FLIPR Ca2+ Flux Assay. On the procedure:
For intracellular calcium measurements, Chinese hamster ovary (CHO) cells expressing the rat orexin-1 receptor or the human orexin-2 receptor, are grown in Iscove's modified DMEM containing 2 mM L-glutamine, […], 1% hypoxanthine-thymidine supplement, 100 U/ml penicillin, 100 μg/ml streptomycin and 10% heat-inactivated fetal calf serum (FCS). The cells are seeded at 20,000 cells/well into Becton-Dickinson black 384-well clear bottom sterile plates coated with poly-D-lysine. All reagents were from GIBCO-Invitrogen Corp. The seeded plates are incubated overnight at 37° C. and 5% CO2. Ala-6,12 human orexin-A as the agonist is prepared as a 1 mM stock solution in 1% bovine serum albumin (BSA) and diluted in assay buffer (HBSS containing 20 mM HEPES, 0.1% BSA and 2.5 mM probenecid, pH7.4) for use in the assay at a final concentration of 70 pM. […] Within the Fluorescent Imaging Plate Reader (FLIPR, Molecular Devices), test compounds are added to the plate in a volume of 25 μl, incubated for 5 min and finally 25 μl of agonist is added. Fluorescence is measured for each well at 1 second intervals for 5 minutes and the height of each fluorescence peak is compared to the height of the fluorescence peak induced by 70 pM Ala-6,12 orexin-A with buffer in place of antagonist.

Turning to `CC(C)Oc1ncccc1C(=O)N1C[C@H](n2ncc(C(C)(C)O)n2)CC[C@H]1C` [US10010539, 15], inhibition was half-maximal at 32.6 nM (IC50). In the case of `CCOc1ccccc1C(=O)N1C[C@H](n2ncc(C(C)(C)O)n2)CC[C@H]1C` [US10010539, 12], the IC50 (commonly the concentration that gives 50% inhibition) was 31.3 nM.
